Where two headings read alike, the source gives them in different places.
Experiment: standard maximal electroshock test (MES), anticonvulsant activity
Format: in vivo
Conditions: HCl salt
Experimental: The anticonvulsant activity of certain compounds of the present invention were determined by a standard maximal electroshock test (MES); that described by L. A. Woodbury and V. D. Davenport, Arch. Int. Pharmacodyn, 1952, 92 95.

[1] = ip, intraperitoneal (I.P.), read-out: ED50 I.P.
[2] = oral (P.O.), read-out: ED50 P.O.

Structure (SMILES) | ED50 [1] [mg/kg] | ED50 [2] [mg/kg]
CNc1nccn2c(Cc3ccccc3F)nnc12 [Example 1, 3-(2-fluorobenzyl)-8-(methylamino)-1,2,4-triazolo[4,3-a]pyrazine] | 4.1 | 8.3
Nc1nccn2c(Cc3ccccc3F)nnc12 [Example 2, 8-amino-3-(2-fluorobenzyl)-1,2,4-triazolo[4,3-a]pyrazine] | 9.4 | 8
CNc1nccn2c(Cc3ccccc3)nnc12 [Example 3, 3-Benzyl-8-(methylamino)-1,2,4-triazolo[4,3-a]pyrazine] | 6.2 | 15.6
CNc1nccn2c(Cc3cccc(F)c3)nnc12 [Example 4, 3-(3-fluorobenzyl)-8-(methylamino)-1,2,4-triazolo[4,3-a]pyrazine] | 4.1 | 20.4
CNc1nccn2c(Cc3ccc(F)cc3)nnc12 [Example 5, 3-(4-fluorobenzyl)-8-(methylamino)-1,2,4-triazolo[4,3-a]pyrazine] | 25 | –
CNc1nccn2c(Cc3cc(F)ccc3F)nnc12 [Example 6, 3-(2,5-difluorobenzyl)-8-(methylamino)-1,2,4-triazolo[4,3-a]pyrazine] | 4 | 10.2
Nc1nccn2c(Cc3cc(F)ccc3F)nnc12 [Example 7, 8-amino-3-(2,5-difluorobenzyl)-1,2,4-triazolo[4,3-a]pyrazine] | 7.1 | 20.4
CNc1nccn2c(Cc3c(F)cccc3F)nnc12 [Example 8, 3-(2,6-difluorobenzyl)-8-(methylamino)-1,2,4-triazolo[4,3-a]pyrazine] | 2 | 3
Nc1nccn2c(Cc3c(F)cccc3F)nnc12 [Example 9, 8-amino-3-(2,6-difluorobenzyl)-1,2,4-triazolo[4,3-a]pyrazine] | 3.1 | 7.1
Fc1cccc(F)c1Cc1nnc2c(NC3CC3)nccn12 [Example 10, 8-(cyclopropylamino)-3-(2,6-difluorobenzyl)-1,2,4-triazolo[4,3-a]pyrazine] | 7.2 | –
Fc1ccccc1Cc1nnc2c(NC3CC3)nccn12 [Example 11, 8-(cyclopropylamino)-3-(2-fluorobenzyl)-1,2,4-triazolo[4,3-a]pyrazine] | 9.4 | –

Reference: patent US5095018A, “3-benzyl-1,2,4-triazolo[4,3-α] pyrazines” (Burroughs Wellcome Co., priority 1989, dated 1992)
